Data as given in patent US12286439B2, “Inhibitors of ERK nuclear translocation” (Yeda Research and Development Co. Ltd., priority 2018, dated 2025).
*: point of attachment. Myristoyl = CCCCCCCCCCCCCC(=O)*

What was measured:
[1] = tested on: ERK1/2 nuclear translocation; experiment: Determination of ERK1/2 localization by fluorescence microscopy after TPA stimulation; assay type: cell-based; conditions: 10 μM, TPA 100 nM, 15 minutes
Experimental: Determination of Protein Localization by Fluorescence Microscopy:
Indicated cells were seeded on coverslips (coated with 0.001% w/v poly-L-lysine or not, depending on the cell line) at 50% confluency. After the indicated treatment, cells were fixed in 4% paraformaldehyde/PBS for 20 minutes on an ice surface, permeabilized with 0.1% Triton X-100/PBS for 5 minutes at 23° C., then blocked in 2% BSA/PBS for 30 minutes at 23° C. The fixed cells were sequentially incubated with appropriate antibodies (in 2% BSA/PBS, 1.5 hour), washed 3 times with PBS^−/−, and followed by incubation with either Cy-2-conjugated or rhodamine-conjugated secondary antibodies (1:200) and with DAPI ([…]; 1:100) in 2% BSA/PBS for 45 minutes. Slides were analyzed and photographed by a fluorescence microscope (Olympus BX51, ×40). Background correction, and contrast adjustment of raw data images were performed using Photoshop (Adobe, CA, USA).
The effect of Z56 was compared with that of the inhibitory effect of EPE peptide on nuclear translocation of ERK1/2.
The effects of the compounds on ERK1/2 nuclear translocation were evaluated in three cell lines (HeLa cells and two melanoma cell lines, A2185 and A2352), by treating the cells with each compound for two hours, and determining nuclear translocation using fluorescent anti-ERK antibodies, according to procedures described hereinabove.

[2] = biological target: interaction of importin7 and ERK1/2 (Homo sapiens, UniProt O95373); conditions: Plotnikov et al., Nat Commun 2015; cited from earlier work
[3] = tested on: Panc-1, AsPC-1, CFPAC-1, MIA PaCa-2, Capan-1, Capan-2 and BxPC-3 pancreatic cancer cells; experiment: Viability assay (methylene blue), pancreatic cancer cell lines; assay type: cell-based; conditions: 10 μM, 72 hours
Experimental: FIGS. 6A and 6B present data showing that Compound Z56 prevents proliferation of pancreatic cancer cells. […] Panc-1, AsPC-1, CFPAC-1, Mia PaCa-2, Capan-1, Capan-2 (Ras-transformed) and BxPC-3 (Ras-wild type) pancreatic cancer cells were treated with either EPE peptide (10 μM; middle bars) or Z56 (3 μM; right bars) or DMSO control (0.1%; left bars) in 1% FCS for 72 hours. […] Panc-1, AsPC-1, BxPC-3 and Mia PaCa-2 cells grown in 1% FCS medium containing either EPE peptide (10 μM), 56 (3 μM), PLX4032 (1 μM), PD184352 (5 μM) or DMSO control (0.1%). The graphs present the kinetics of cell proliferation at the indicated times after the treatment started. Quantification of all viable cells was done by methylene blue and repeated 3 times in triplicates. All results presented as a fold change of the initial cell number and represent averages ±SE.
(§1) Cells were seeded at low confluence into 24, 48 or 96-well plates in complete medium. After 24 hours, medium was replaced by 1% FCS (fetal calf serum) containing appropriate treatments. Fresh medium containing the same agents was replaced every day. After 72 or 96 hours of treatment, cells were fixed with 4% formaldehyde overnight at 23° C., washed once with 0.1 M borate buffer (pH 8.5) for 10 minutes, and stained with of 1% methylene blue in 0.1 M borate buffer (pH 8.5) for 30 minutes. Excess stain was washed out with distilled water. Color was extracted by adding 0.1 M HCl (3 hours, 23° C.), and absorbance measured at 595 nm in an ELISA reader. For time course experiments, attached cells were fixed and measured at 0, 24, 48, 72 and 96 hours. For dose-response experiments, cells were treated with indicated concentrations of reagent, fixed and stained after 72 hours as above.
Activating mutations in Ras are found in more than 95% of pancreatic cancers where signaling through both Raf and Akt pathway drives cancer progression [Campbell et al., Cancer Res 2007, 67:2098-2106]. However, no effective treatments that target this mutant protein have reached the clinic to date, and pancreatic ductal adenocarcinoma remains an almost universally fatal disease [Bryant et al., Trends Biochem Sci 2014, 39:91-100]. Therefore, treating these pancreatic cancer cells downstream of Ras, without overactivating the Akt pathway, should be at least partially beneficial. The effect of Compound Z56 (and EPE peptide) on cell viability of Ras-transformed (and Ras-wild type) pancreatic cancer cells was determined, using a variety of cell lines.
The effects of Compound Z56 on the viability of pancreatic cancer cell lines at various times after treatment was compared with those of PLX4032 (a B-Raf inhibitor) and PD184352 (a MEK1/2 inhibitor).

[4] = tested on: PC3 cells; experiment: Dose-response analysis, PC3 cells; assay type: cell-based; conditions: 10 μM, 72 hours
Experimental: (§2) FIG. 15A presents dose response curves of compounds C17, D3, D11 and D14 on 8 cancer cells. Five melanoma cell lines (A2185, A2352, A2024, A2058 and LOX-IMVI), HeLa, HCT-116 and PC3 cells were grown in 1% FCS media containing either DMSO (0.1%), EPE peptide (10 μM), or Compounds C17, D3, D11, D14 at the indicated concentrations, for 72 hours. Viable cells were quantified by staining with methylene blue. Data presented as percentage of DMSO control ±SE of triplicates. […] IC50 values were calculated by interpolation in the curves in FIG. 15A. […] Bar graphs represent average viability respect to DMSO control ±SE of triplicates.
(§3) Cell Viability (IC50) Assay:
(§4) Cells were seeded at a density of 4000 cells per well into 96-well plates in complete medium. After 24 hours, medium was replaced by 1% FCS (fetal calf serum) containing appropriate treatments. Fresh medium containing the same agents was replaced every day. After 96 hours, cell viability was assessed using the CellTiter-Glo reagent (Promega; Madison, WI). IC50 values were determined using GraphPad Prism.

[5] = tested on: BRAF-mutant, NRAS-mutant and NF1-mutant melanomas; conditions: Arafeh et al., Sci Rep 2017; cited from earlier work
[6] = tested on: HeLa, A2352, A2185, LOX-IMVI, A4132, A2024, MDA-MB-231, PC3, A2058 and MCF7 cells; experiment: Viability assay (methylene blue), ten cancer cell lines; assay type: cell-based; conditions: 10 μM, 72 hours, 1% FCS
Experimental: Ten cancer cell lines were treated with either EPE peptide (10 μM; middle bars) or Compound Z56 (3 μM; right bars) or DMSO control (0.1%; left bars) in 1% FCS (fetal calf serum) for 72 hours.
A3252 and A2058 cells were treated either with EPE peptide (10 μM), Z56 (1, 3 or 10 μM) or DMSO control (0.1%). The graphs present the kinetics of cell proliferation at the indicated times. Viable cells were quantified by staining with methylene blue. All results were presented as a fold change of the initial cell number and represent averages ±SE of 3 experiments in triplicate.
as §1, with “For dose-response experiments, cells were treated with indicated concentrations of reagent, fixed and stained after 72 hours as above.” left out

[7] = tested on: A2058 cells; experiment: Dose-response analysis, A2058 cells; assay type: cell-based; conditions: 10 μM
Experimental: as §2, §3, §4

Sequence of interaction of importin7 and ERK1/2 (O95373 whole entry): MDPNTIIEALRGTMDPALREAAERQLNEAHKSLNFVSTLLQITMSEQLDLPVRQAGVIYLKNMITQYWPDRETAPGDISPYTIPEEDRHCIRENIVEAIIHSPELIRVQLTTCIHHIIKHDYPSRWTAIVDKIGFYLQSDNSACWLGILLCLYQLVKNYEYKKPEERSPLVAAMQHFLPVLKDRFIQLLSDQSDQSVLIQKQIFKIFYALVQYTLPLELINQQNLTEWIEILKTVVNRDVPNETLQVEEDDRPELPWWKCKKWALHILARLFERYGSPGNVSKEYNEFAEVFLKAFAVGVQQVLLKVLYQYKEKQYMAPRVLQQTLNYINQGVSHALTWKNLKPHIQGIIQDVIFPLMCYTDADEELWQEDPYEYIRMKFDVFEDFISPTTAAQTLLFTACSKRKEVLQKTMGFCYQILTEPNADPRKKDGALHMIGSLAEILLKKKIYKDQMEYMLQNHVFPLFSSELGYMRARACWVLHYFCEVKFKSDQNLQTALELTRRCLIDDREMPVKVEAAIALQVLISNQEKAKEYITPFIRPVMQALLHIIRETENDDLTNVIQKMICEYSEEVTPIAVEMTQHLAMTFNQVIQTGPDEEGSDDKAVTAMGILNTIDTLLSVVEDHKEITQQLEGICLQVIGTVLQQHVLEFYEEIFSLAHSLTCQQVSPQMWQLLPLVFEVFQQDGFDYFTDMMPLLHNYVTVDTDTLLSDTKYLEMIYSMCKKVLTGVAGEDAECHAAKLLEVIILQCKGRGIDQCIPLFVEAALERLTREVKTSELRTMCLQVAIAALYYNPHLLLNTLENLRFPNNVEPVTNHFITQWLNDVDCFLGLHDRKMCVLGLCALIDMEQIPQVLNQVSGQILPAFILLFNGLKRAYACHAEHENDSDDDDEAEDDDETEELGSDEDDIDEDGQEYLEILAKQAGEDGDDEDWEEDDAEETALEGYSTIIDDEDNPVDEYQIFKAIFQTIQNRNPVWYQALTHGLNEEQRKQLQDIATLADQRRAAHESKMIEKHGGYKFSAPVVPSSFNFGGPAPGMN

EPE peptide: peptide GQLNHILGILGEPEQEDL (SEQ ID NO: 1) conjugated at N-terminus to myristic acid and C-terminal amidated (Myristoyl-GQLNHILGILGEPEQEDL-NH2; SMILES CCCCCCCCCCCCCC(=O)NCC(=O)N[C@@H](CCC(N)=O)C(=O)N[C@@H](CC(C)C)C(=O)N[C@@H](CC(N)=O)C(=O)N[C@@H](Cc1c[nH]cn1)C(=O)N[C@H](C(=O)N[C@@H](CC(C)C)C(=O)NCC(=O)N[C@H](C(=O)N[C@@H](CC(C)C)C(=O)NCC(=O)N[C@@H](CCC(=O)O)C(=O)N1CCC[C@H]1C(=O)N[C@@H](CCC(=O)O)C(=O)N[C@@H](CCC(N)=O)C(=O)N[C@@H](CCC(=O)O)C(=O)N[C@@H](CC(=O)O)C(=O)N[C@@H](CC(C)C)C(N)=O)[C@@H](C)CC)[C@@H](C)CC) [reference compound]
degree of ERK1/2 nuclear localization induced by TPA (percentage of cells with nuclear ERK1/2 staining) ([1]; 2 hours pretreatment, MCF7, A2352, HB2 and HeLa cells): phenotype similar to the basal state
nuclear accumulation of ERK1/2 upon TPA stimulation ([1]; 2 hours, A2185 and A2352 cells): inhibited
interaction of importin7 and ERK1/2 and nuclear translocation of ERK1/2 [2]: blocks the interaction of importin7 and ERK1/2
proliferation/viability ([3]; 4 Ras-transformed pancreatic cell lines other than Panc-1 and AsPC-1): no major effect
reduction of cell proliferation relative to control ([3]; Ras-wild type BxPC-3 cells): 50%
cell viability and apoptosis ([3]; only 2 of the 7 tested cell lines (Panc-1 and AsPC-1)): reduced cell viability and induced apoptosis
viability of PC3 cells [4]: only a very modest effect
combination with the MEK inhibitor trametinib, viability of NRAS-mutant melanomas [5]: exhibited synergy
viability of BRAF-mutant, NRAS-mutant and NF1-mutant melanomas [5]: significantly reduced the viability
proliferation of PC3, A2058 and MCF7 cells [6]: not significantly affected
apoptosis / proliferation of EPE-sensitive cell lines ([6]; HeLa, A2352, A2185, LOX-IMVI, A4132, Z2024, MDA-MB-231): induced apoptosis
viability of BRAF melanoma cells A2058 [7]: lack of effect
